From ChEMBL document CHEMBL1123995, “N-sulfonyl imidates as a novel prodrug form for an ester function or a sulfonamide group” (J Med Chem, 1988) come the findings set out here.

The first data set can be described thus: Half-life of hydrolysis at pH 7.4 at 37 degree C. The settings on record: buffer. The format is ADME.
On to `CCO/C(C)=N\S(=O)(=O)c1ccc(C)cc1`, for which the half-life was determined as 2.4 h.

`Cc1ccc(S(=O)(=O)/N=C(\OCCCN(C)C)c2ccccc2)cc1.Cl` showed a half-life of 0.183 h.

For the compound `CCO/C(=N\S(=O)(=O)c1ccc(C)cc1)c1ccccc1`, the half-life is 2.92 h.

On to `Cc1ccc(S(=O)(=O)/N=C(\Oc2ccccc2C(=O)OCC(=O)N(C)C)c2ccccc2)cc1`, for which the half-life worked out at 1.52 h.

Regarding `Cc1ccc(S(=O)(=O)/N=C(\OCCN2CCCC2=O)c2ccccc2)cc1`, the half-life is 1.25 h.

`CCCC/C(=N/S(=O)(=O)c1ccc(C)cc1)OC` registered a half-life of 2.67 h.

Take `CCOC(=NS(=O)(=O)c1ccc(C)cc1)OCC`: the half-life was found to be 26.3 h.

`Cc1ccc(S(=O)(=O)/N=C(\OCCN2CCCCC2)c2ccccc2)cc1.Cl` displayed a half-life of 0.0217 h.

On to `CO/C(=N\S(=O)(=O)c1ccc(C)cc1)c1ccccc1`, for which the half-life is 1.9 h.

In turn, `COC(=NS(=O)(=O)c1ccc(C)cc1)OC` had a half-life of 4.25 h.

Take `CCO/C(CC)=N\S(=O)(=O)c1ccc(C)cc1`: the half-life stood at 1.8 h.

`Cc1ccc(S(=O)(=O)/N=C(\OC(C)C)c2ccccc2)cc1` had a half-life of 17.4 h.

The compound `Cc1ccc(S(=O)(=O)/N=C(\OCCN(C)C)c2ccccc2)cc1.Cl` displayed a half-life of 0.045 h.

On to `CCC/C(=N/S(=O)(=O)c1ccc(C)cc1)OC`, for which the half-life amounted to 2.42 h.

`Cc1ccc(S(=O)(=O)/N=C(\OC2CCN(C)CC2)c2ccccc2)cc1.Cl` registered a half-life of 1.48 h.

With `CCCO/C(=N\S(=O)(=O)c1ccc(C)cc1)c1ccccc1`, the half-life stood at 2.92 h.

The compound `Cc1ccc(S(=O)(=O)/N=C(\OCC(=O)N(C)C)c2ccccc2)cc1` displayed a half-life of 2.4 h.

On to `CO/C(C)=N\S(=O)(=O)c1ccc(C)cc1`, for which the half-life was 1.38 h.

`CCO/C=N\S(=O)(=O)c1ccc(C)cc1` showed a half-life of 0.0133 h.

A further data set in a line: Half-life of hydrolysis at pH 4.0 at 37 degree C. It counts as ADME. The settings on record: buffer.
Consider `Cc1ccc(S(=O)(=O)/N=C(\OCCCN(C)C)c2ccccc2)cc1.Cl`, for which the half-life came out at 0.883 h.

In the case of `Cc1ccc(S(=O)(=O)/N=C(\OCCN2CCCCC2)c2ccccc2)cc1.Cl`, the half-life came to 0.583 h.

In the case of `Cc1ccc(S(=O)(=O)/N=C(\OCCN(C)C)c2ccccc2)cc1.Cl`, the half-life amounted to 0.583 h.

Another data set is described as follows: Half-life of hydrolysis at pH 6.0 at 37 degree C. The format is ADME. The conditions noted are these: buffer.
In the case of `CCO/C(C)=N\S(=O)(=O)c1ccc(C)cc1`, the half-life is 2.92 h.

`CCO/C(=N\S(=O)(=O)c1ccc(C)cc1)c1ccccc1` registered a half-life of 3.67 h.

With `Cc1ccc(S(=O)(=O)/N=C(\Oc2ccccc2C(=O)OCC(=O)N(C)C)c2ccccc2)cc1`, the half-life came out at 1.55 h.

As for `COC(=NS(=O)(=O)c1ccc(C)cc1)OC`, the half-life amounted to 14.5 h.

As for `Cc1ccc(S(=O)(=O)/N=C(\OC(C)C)c2ccccc2)cc1`, the half-life is 23 h.

`Cc1ccc(S(=O)(=O)/N=C(\OC2CCN(C)CC2)c2ccccc2)cc1.Cl`: the half-life turned out to be 1.5 h.

Take `CO/C(C)=N\S(=O)(=O)c1ccc(C)cc1`: the half-life was determined as 2.5 h.

`CCO/C=N\S(=O)(=O)c1ccc(C)cc1`: the half-life stood at 0.02 h.

The next data set is described as follows: Half life of 80% diluted human plasma with 0.01 M phosphate buffer of pH 7.4. It counts as ADME. The conditions noted are these: 80% human plasma.
Compound `CCO/C(C)=N\S(=O)(=O)c1ccc(C)cc1` showed a half-life of 0.107 h.

Consider `Cc1ccc(S(=O)(=O)/N=C(\OCCCN(C)C)c2ccccc2)cc1.Cl`, for which the half-life was found to be 0.0667 h.

The compound `CCO/C(=N\S(=O)(=O)c1ccc(C)cc1)c1ccccc1` registered a half-life of 0.333 h.

Consider `Cc1ccc(S(=O)(=O)/N=C(\Oc2ccccc2C(=O)OCC(=O)N(C)C)c2ccccc2)cc1`, for which the half-life is 0.01 h.

`Cc1ccc(S(=O)(=O)/N=C(\OCCN2CCCC2=O)c2ccccc2)cc1` gave a half-life of 0.08 h.

`CCCC/C(=N/S(=O)(=O)c1ccc(C)cc1)OC` registered a half-life of 0.467 h.

With `CCOC(=NS(=O)(=O)c1ccc(C)cc1)OCC`, the half-life stood at 1.3 h.

The compound `Cc1ccc(S(=O)(=O)/N=C(\OCCN2CCCCC2)c2ccccc2)cc1.Cl` displayed a half-life of under 0.0167 h.

`CO/C(=N\S(=O)(=O)c1ccc(C)cc1)c1ccccc1` had a half-life of 0.117 h.

For the compound `COC(=NS(=O)(=O)c1ccc(C)cc1)OC`, the half-life came to 0.533 h.

Consider `CCO/C(CC)=N\S(=O)(=O)c1ccc(C)cc1`, for which the half-life is 0.4 h.

Consider `Cc1ccc(S(=O)(=O)/N=C(\OC(C)C)c2ccccc2)cc1`, for which the half-life amounted to 3.25 h.

The compound `Cc1ccc(S(=O)(=O)/N=C(\OCCN(C)C)c2ccccc2)cc1.Cl` had a half-life of under 0.0167 h.

`CCC/C(=N/S(=O)(=O)c1ccc(C)cc1)OC` came in with a half-life of 0.533 h.

`Cc1ccc(S(=O)(=O)/N=C(\OC2CCN(C)CC2)c2ccccc2)cc1.Cl` yielded a half-life of 0.6 h.

In the case of `CCCO/C(=N\S(=O)(=O)c1ccc(C)cc1)c1ccccc1`, the half-life came to 0.333 h.

The compound `Cc1ccc(S(=O)(=O)/N=C(\OCC(=O)N(C)C)c2ccccc2)cc1` displayed a half-life of 0.0333 h.

`CO/C(C)=N\S(=O)(=O)c1ccc(C)cc1` came in with a half-life of 0.135 h.

The compound `CCO/C=N\S(=O)(=O)c1ccc(C)cc1` gave a half-life of under 0.0167 h.
